Results from ChEMBL document CHEMBL1201862, “PubChem BioAssay data set” (2004).
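Assay format: 96-well plates, 48-hour exposure. At the GI50, growth is halved.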 Calls of active or inactive are those of the source. Cut-off read from the data, not from the text of the source: active = GI50 up to about 1.1 µM and inactive = higher.

Legend:
Test in all cases: DTP human tumour cell line panel, 48 h
SK-OV-3 = test system: SK-OV-3
KM12 = test system: KM12
HCT-116 = test system: HCT-116
MOLT-4 = test system: MOLT-4
OVCAR-3 = test system: OVCAR-3
UACC-62 = test system: UACC-62
HT-29 = test system: HT-29
OVCAR-5 = test system: OVCAR-5
MDA-MB-435 = test system: MDA-MB-435
MDA-MB-231 = test system: MDA-MB-231
UACC-257 = test system: UACC-257
SF-268 = test system: SF-268
COLO 205 = test system: COLO 205
RPMI-8226 = test system: RPMI-8226
HL-60 = test system: HL-60
NCI-H522 = test system: NCI-H522
SF-539 = test system: SF-539
SN12C = test system: SN12C
EKVX = test system: EKVX
SK-MEL-28 = test system: SK-MEL-28

Measured: GI50

CCOC(=O)/C=C/[C@H](O[Si](c1ccccc1)(c1ccccc1)c1ccccc1)C(C)(C)C
inactive: SK-OV-3 > 31.6 µM | KM12 15.8 µM | HCT-116 22.5 µM | MOLT-4 14.1 µM | OVCAR-3 > 31.6 µM | UACC-62 > 31.6 µM | HT-29 7.03 µM | OVCAR-5 > 10 µM | MDA-MB-435 > 31.6 µM | MDA-MB-231 > 31.6 µM | UACC-257 11.1 µM | SF-268 > 31.6 µM | COLO 205 > 31.6 µM | RPMI-8226 3.44 µM | HL-60 > 100 µM | NCI-H522 > 31.5 µM | SF-539 > 31.6 µM | SN12C > 31.6 µM | EKVX > 31.6 µM | SK-MEL-28 > 10 µM

OCC1OC(Oc2cc(O)cc(/C=C\c3ccc(O)cc3)c2)C(O)C(O)C1O (stereo unspecified)
inactive: SK-OV-3 > 100 µM | KM12 > 100 µM | HCT-116 > 100 µM | MOLT-4 > 100 µM | OVCAR-3 > 100 µM | UACC-62 > 100 µM | HT-29 > 100 µM | OVCAR-5 > 100 µM | MDA-MB-435 > 100 µM | MDA-MB-231 > 100 µM | UACC-257 > 100 µM | RPMI-8226 > 100 µM | HL-60 > 100 µM | NCI-H522 > 100 µM | SF-539 > 100 µM | SN12C > 100 µM | EKVX > 100 µM | SK-MEL-28 > 100 µM

C=C(C)C(=O)/N=C(\N)NC#N
inactive: SK-OV-3 170 µM | KM12 59 µM | HCT-116 31.6 µM | OVCAR-3 68.7 µM | UACC-62 34.7 µM | HT-29 62.8 µM | OVCAR-5 168 µM | MDA-MB-435 131 µM | MDA-MB-231 48.2 µM | UACC-257 29.9 µM | SF-268 27.1 µM | COLO 205 49.2 µM | RPMI-8226 10.6 µM | HL-60 20 µM | NCI-H522 5.81 µM | SF-539 34.8 µM | SN12C 36.4 µM | EKVX > 54 µM | SK-MEL-28 28.9 µM

COc1ccc(Cn2nc(OCc3ccccc3)c3cc([N+](=O)[O-])ccc32)cc1
inactive: SK-OV-3 > 100 µM | KM12 > 100 µM | MOLT-4 > 100 µM | OVCAR-3 > 100 µM | UACC-62 > 100 µM | HT-29 > 100 µM | OVCAR-5 > 100 µM | MDA-MB-435 > 100 µM | MDA-MB-231 > 100 µM | UACC-257 > 100 µM | SF-268 > 100 µM | RPMI-8226 > 100 µM | HL-60 > 100 µM | NCI-H522 > 100 µM | SF-539 > 100 µM | SN12C > 100 µM | SK-MEL-28 > 100 µM

COC(=O)C1=NN2c3ccccc3C(=O)OCCC2(C)C1 (stereo unspecified)
inactive: SK-OV-3 > 100 µM | KM12 > 100 µM | HCT-116 > 100 µM | MOLT-4 > 100 µM | OVCAR-3 > 100 µM | UACC-62 > 100 µM | HT-29 > 100 µM | OVCAR-5 > 100 µM | MDA-MB-435 > 100 µM | MDA-MB-231 > 100 µM | SF-268 > 100 µM | COLO 205 > 100 µM | RPMI-8226 > 100 µM | HL-60 > 100 µM | NCI-H522 > 100 µM | SF-539 > 100 µM | SN12C > 100 µM | EKVX > 100 µM | SK-MEL-28 > 100 µM

CC(=O)OCC1OC(n2c3c(c(-c4cccc5ccccc45)c(C#N)c2=S)CCCC3)C(OC(C)=O)C(OC(C)=O)C1OC(C)=O (stereo unspecified)
inactive: SK-OV-3 > 100 µM | KM12 > 100 µM | HCT-116 > 100 µM | MOLT-4 > 100 µM | OVCAR-3 > 100 µM | UACC-62 > 100 µM | HT-29 > 100 µM | OVCAR-5 > 100 µM | MDA-MB-435 > 100 µM | MDA-MB-231 > 100 µM | UACC-257 > 100 µM | SF-268 > 100 µM | COLO 205 > 100 µM | HL-60 > 100 µM | NCI-H522 > 100 µM | SF-539 > 100 µM | SN12C > 100 µM | EKVX 25.8 µM | SK-MEL-28 > 100 µM

CC(=O)c1nc2ccccc2n1C(C)C(=O)c1ccccc1 (stereo unspecified)
inactive: SK-OV-3 69 µM | KM12 58.3 µM | HCT-116 50.4 µM | MOLT-4 34.9 µM | OVCAR-3 41.8 µM | UACC-62 33 µM | HT-29 > 100 µM | MDA-MB-435 52.7 µM | MDA-MB-231 36.1 µM | UACC-257 54.6 µM | SF-268 26.5 µM | COLO 205 > 100 µM | RPMI-8226 51.6 µM | HL-60 29.6 µM | NCI-H522 15.5 µM | SF-539 > 100 µM | SN12C 56.6 µM | EKVX > 100 µM | SK-MEL-28 > 100 µM

Fc1ccc(NCn2nc(COc3ccccc3Cl)n(/N=C/c3ccc(-c4ccc(Cl)cc4Cl)o3)c2=S)cc1Cl
inactive: SK-OV-3 46.6 µM | KM12 26 µM | HCT-116 28.4 µM | MOLT-4 16.1 µM | OVCAR-3 37.9 µM | HT-29 > 100 µM | OVCAR-5 > 100 µM | MDA-MB-435 41.4 µM | MDA-MB-231 44.4 µM | UACC-257 41.5 µM | SF-268 79.1 µM | RPMI-8226 22.3 µM | HL-60 15.8 µM | NCI-H522 36.7 µM | SF-539 31.3 µM | EKVX > 100 µM | SK-MEL-28 > 100 µM

CC1=C(C#N)C2C(=C(N)Oc3ccccc32)C(N)=N1 (stereo unspecified)
inactive: SK-OV-3 8.38 µM | KM12 26.4 µM | HCT-116 24.4 µM | MOLT-4 75 µM | OVCAR-3 44.8 µM | UACC-62 20.7 µM | HT-29 27.2 µM | OVCAR-5 24.8 µM | MDA-MB-435 27.7 µM | MDA-MB-231 14 µM | UACC-257 20.1 µM | SF-268 24.5 µM | COLO 205 26.1 µM | RPMI-8226 24 µM | HL-60 29.1 µM | NCI-H522 15.4 µM | SF-539 30.1 µM | SN12C 23.7 µM | EKVX 25.4 µM

COc1cc(/C=C2\N=C(c3ccccc3)N(c3nc4ccc(Sc5ccccc5)cc4[nH]3)C2=O)ccc1O
inactive: SK-OV-3 30.4 µM | KM12 15.2 µM | HCT-116 21.1 µM | MOLT-4 26.1 µM | OVCAR-3 30.5 µM | UACC-62 15.2 µM | HT-29 18.4 µM | OVCAR-5 26.1 µM | MDA-MB-435 3.56 µM | MDA-MB-231 25.6 µM | UACC-257 18 µM | SF-268 25.5 µM | COLO 205 18 µM | RPMI-8226 16.7 µM | HL-60 11.2 µM | NCI-H522 18.8 µM | SN12C 26.9 µM | EKVX 31.5 µM | SK-MEL-28 21.2 µM
